# Reference: publication PMC5893597, “Structural mechanism for nucleotide-driven remodeling of the AAA-ATPase unfoldase in the activated human 26S proteasome” (Nature Communications, 2018)
# System: T1, human 26S proteasome AAA-ATPase heterohexamer (Rpt1-6) in the holoenzyme
# T1 construct: gene PSMC2; endogenous subunits in doubly capped 26S holoenzyme (28-subunit CP, 19-subunit RPs)
# Assay: cryo-EM structure
# Assay type: binding
# Conditions: 1 mM ATP-γ-S, 1 mM MgCl2, pH 7.5; Walker A nucleotide sites of Rpt subunits
smiles,measurement,value
Nc1ncnc2c1ncn2[C@@H]1O[C@H](COP(=O)(O)OP(=O)(O)OP(O)(O)=S)[C@@H](O)[C@H]1O [ATP-γ-S],cryo-EM structure,ATP-γ-S was modeled into the nucleotide densities of four Rpt subunits in each state
